{"source": "patent US20230140216A1", "about": "“COMBINATION THERAPY FOR TREATING MPS1” (GAIN THERAPEUTICS SA, priority 2020, published 2023)", "target": "T1, Recombinant human α-L-iduronidase protein (Homo sapiens, UniProt P35475)", "T1 construct": "purchased R&D", "T1 sequence (P35475 28-653)": "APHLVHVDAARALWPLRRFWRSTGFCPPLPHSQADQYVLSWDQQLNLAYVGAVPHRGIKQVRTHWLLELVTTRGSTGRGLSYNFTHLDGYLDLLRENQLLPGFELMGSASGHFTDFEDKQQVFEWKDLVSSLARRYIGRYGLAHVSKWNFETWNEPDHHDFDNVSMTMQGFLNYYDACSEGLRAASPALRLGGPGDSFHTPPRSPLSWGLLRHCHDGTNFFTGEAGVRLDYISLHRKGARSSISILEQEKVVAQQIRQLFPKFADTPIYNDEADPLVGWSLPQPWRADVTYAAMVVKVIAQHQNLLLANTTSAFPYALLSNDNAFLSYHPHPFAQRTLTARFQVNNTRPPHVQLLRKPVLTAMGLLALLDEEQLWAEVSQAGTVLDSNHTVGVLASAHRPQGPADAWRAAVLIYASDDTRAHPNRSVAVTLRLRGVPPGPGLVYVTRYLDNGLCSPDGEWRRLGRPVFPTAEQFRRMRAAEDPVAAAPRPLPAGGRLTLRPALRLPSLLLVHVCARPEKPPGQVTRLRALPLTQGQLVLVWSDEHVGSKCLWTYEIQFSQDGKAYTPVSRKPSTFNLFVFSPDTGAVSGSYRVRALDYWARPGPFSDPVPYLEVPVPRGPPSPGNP", "test": "Differential scanning fluorimetry (DSF) thermal stabilization", "type": "binding", "summary_of_the_method": "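Purified recombinant human α-L-iduronidase (final 0.75 µM) in 100 mM Hepes, 20 mM MgCl2, pH 7 with SYPRO Orange was heated with compounds (final 1% DMSO). Thermal denaturation was followed by probe fluorescence during a temperature ramp, and stabilization expressed as ΔTm, binned into four categories (A–D).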"}
{"smiles": "CCN(CC(=O)Nc1c(Cl)cccc1Cl)Cc1nc2ccsc2c(=O)[nH]1", "note": "[Compound A]", "values": [{"measurement": "stabilization of recombinant human IDUA (thermal shift)", "setting": "DSF dose response, maximum shift", "result": "up to 4 °C"}, {"measurement": "Kd", "setting": "thermal shift dose response curve", "result": 22, "unit": "µM"}]}
